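Five compound concentrations were applied to cells in 96-well plates for 48 hours; endpoints were derived by simple linear interpolation of the resulting dose-response curve. At the GI50, growth is halved.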 Calls of active or inactive are those of the source. No stated cut-off is given here; in the data, active = GI50 up to about 1.1 µM and inactive = higher.
Experiments:
Experiment in all cases: DTP human tumour cell line panel, 48 h
A549 = tested on: A549
COLO 205 = tested on: COLO 205
DU-145 = tested on: DU-145
EKVX = tested on: EKVX
HCT-15 = tested on: HCT-15
HOP-62 = tested on: HOP-62
Hs-578T = tested on: Hs-578T
IGROV-1 = tested on: IGROV-1
LOX IMVI = tested on: LOX IMVI
MCF7 = tested on: MCF7
NCI-H226 = tested on: NCI-H226
NCI-H460 = tested on: NCI-H460
NCI/ADR-RES = tested on: NCI/ADR-RES
OVCAR-4 = tested on: OVCAR-4
OVCAR-5 = tested on: OVCAR-5
OVCAR-8 = tested on: OVCAR-8
SF-268 = tested on: SF-268
SN12C = tested on: SN12C
U-251 = tested on: U-251
UO-31 = tested on: UO-31

In the case of O=C1/C(=C/c2cccnc2)C(n2cccc2)c2c(Br)sc(Br)c21 (stereo not given), the GI50 (A549) is reported as 15.6 µM (inactive), the GI50 (COLO 205) is reported as 6.64 µM (inactive) and the GI50 (DU-145) is reported as 1.94 µM (inactive). For the same molecule, the GI50 (EKVX) was 2 µM (inactive), the GI50 (HCT-15) was 2.02 µM and the GI50 (HOP-62) was 2.73 µM (inactive). For the same molecule, the GI50 (Hs-578T) was 2.94 µM (inactive), the GI50 (IGROV-1) was 1.58 µM (inactive) and the GI50 (LOX IMVI) was 1.93 µM (inactive). The GI50 (MCF7) was 1.8 µM (inactive), the GI50 (NCI-H226) was 41.3 µM (inactive) and the GI50 (NCI-H460) was 4.16 µM (inactive). The GI50 (NCI/ADR-RES) was 7.43 µM (inactive), the GI50 (OVCAR-4) was 2.07 µM (inactive) and the GI50 (OVCAR-5) was 15 µM (inactive). For the same molecule, the GI50 (OVCAR-8) was 2.1 µM (inactive), the GI50 (SF-268) was 2.13 µM (inactive) and the GI50 (SN12C) was 3.94 µM (inactive). For the same molecule, the GI50 (U-251) was 1.7 µM (inactive) and the GI50 (UO-31) was 1.78 µM (inactive).
In the case of CC(=O)OC1C(COC(=O)c2ccccc2)OC(Nc2ncc(-c3ccc(Br)cc3)s2)C(OC(=O)c2ccccc2)C1OC(=O)c1ccccc1 (stereo not given), the GI50 (A549) is reported as > 100 µM (inactive), the GI50 (COLO 205) is reported as > 100 µM (inactive) and the GI50 (DU-145) is reported as > 100 µM (inactive). For the same molecule, the GI50 (EKVX) was > 100 µM (inactive), the GI50 (HCT-15) was over 10 µM and the GI50 (HOP-62) was > 100 µM (inactive). For the same molecule, the GI50 (Hs-578T) was > 100 µM (inactive), the GI50 (IGROV-1) was > 100 µM (inactive) and the GI50 (LOX IMVI) was > 100 µM (inactive). For the same molecule, the GI50 (MCF7) was > 100 µM (inactive), the GI50 (NCI-H226) was > 100 µM (inactive) and the GI50 (NCI-H460) was > 100 µM (inactive). For the same molecule, the GI50 (NCI/ADR-RES) was > 10 µM (inactive), the GI50 (OVCAR-4) was > 100 µM (inactive) and the GI50 (OVCAR-5) was > 100 µM (inactive). For the same molecule, the GI50 (OVCAR-8) was > 100 µM (inactive), the GI50 (SF-268) was > 100 µM (inactive) and the GI50 (SN12C) was > 100 µM (inactive). For the same molecule, the GI50 (U-251) was > 100 µM (inactive) and the GI50 (UO-31) was > 100 µM (inactive).
With O=C(Nc1ccccc1)OCCN=C1c2ccccc2C(Br)C(Br)c2ccccc21 (stereo not given) the GI50 (A549) was 16 µM (inactive), the GI50 (COLO 205) was 4.94 µM (inactive) and the GI50 (DU-145) was 9.16 µM (inactive). For the same molecule, the GI50 (EKVX) was 10 µM (inactive), the GI50 (HCT-15) was 3.85 µM and the GI50 (HOP-62) was 15.1 µM (inactive). For the same molecule, the GI50 (Hs-578T) was 12.4 µM (inactive), the GI50 (IGROV-1) was 6.52 µM (inactive) and the GI50 (LOX IMVI) was 5.08 µM (inactive). The GI50 (MCF7) was 5.68 µM (inactive), the GI50 (NCI-H226) was 12.6 µM (inactive) and the GI50 (NCI-H460) was 12.1 µM (inactive). The GI50 (NCI/ADR-RES) was 11.7 µM (inactive), the GI50 (OVCAR-4) was 5.38 µM (inactive) and the GI50 (OVCAR-5) was 16 µM (inactive). For the same molecule, the GI50 (OVCAR-8) was 4.09 µM (inactive), the GI50 (SF-268) was 10.5 µM (inactive) and the GI50 (SN12C) was 11.1 µM (inactive). For the same molecule, the GI50 (U-251) was 8.45 µM (inactive) and the GI50 (UO-31) was 2.02 µM (inactive).
With COC(=O)c1ccc([N+](=O)[O-])c(O)c1 the GI50 (A549) was > 100 µM (inactive), the GI50 (COLO 205) was > 100 µM (inactive) and the GI50 (DU-145) was > 100 µM (inactive). For the same molecule, the GI50 (EKVX) was > 100 µM (inactive), the GI50 (HCT-15) was over 100 µM and the GI50 (HOP-62) was > 100 µM (inactive). For the same molecule, the GI50 (Hs-578T) was > 100 µM (inactive), the GI50 (IGROV-1) was > 100 µM (inactive) and the GI50 (LOX IMVI) was > 100 µM (inactive). For the same molecule, the GI50 (MCF7) was > 100 µM (inactive), the GI50 (NCI-H226) was > 100 µM (inactive) and the GI50 (NCI-H460) was > 100 µM (inactive). For the same molecule, the GI50 (NCI/ADR-RES) was > 100 µM (inactive), the GI50 (OVCAR-4) was 19.9 µM (inactive) and the GI50 (OVCAR-5) was > 100 µM (inactive). For the same molecule, the GI50 (OVCAR-8) was > 100 µM (inactive), the GI50 (SF-268) was > 100 µM (inactive) and the GI50 (SN12C) was > 100 µM (inactive). For the same molecule, the GI50 (U-251) was > 100 µM (inactive) and the GI50 (UO-31) was > 100 µM (inactive).
For CC(=O)c1c(C(F)(F)F)[n+]([O-])c2cc(Cl)c(Cl)cc2[n+]1[O-], the GI50 (A549) was 0.575 µM (active), the GI50 (COLO 205) was 0.746 µM (active) and the GI50 (DU-145) was 1.26 µM (inactive). For the same molecule, the GI50 (EKVX) was 1.29 µM (inactive), the GI50 (HCT-15) was 0.196 µM and the GI50 (HOP-62) was 0.27 µM (active). The GI50 (Hs-578T) was 0.483 µM (active), the GI50 (IGROV-1) was 0.111 µM (active) and the GI50 (LOX IMVI) was 0.157 µM (active). For the same molecule, the GI50 (MCF7) was 0.265 µM (active), the GI50 (NCI-H226) was 1.46 µM (inactive) and the GI50 (NCI-H460) was 0.242 µM (active). For the same molecule, the GI50 (NCI/ADR-RES) was 1.5 µM (inactive), the GI50 (OVCAR-4) was 1.4 µM (inactive) and the GI50 (OVCAR-5) was 1.63 µM (inactive). The GI50 (OVCAR-8) was 0.531 µM (active), the GI50 (SF-268) was 1.15 µM (inactive) and the GI50 (SN12C) was 1.12 µM (inactive). For the same molecule, the GI50 (U-251) was 1.24 µM (inactive) and the GI50 (UO-31) was 0.41 µM (active).
C=C1C(=O)C([Si](C)(C)C)=C2C=C(C)C3(CC3)C12C (stereo not given) was tested, and the GI50 (A549) was 24.2 µM (inactive), the GI50 (COLO 205) was 14.2 µM (inactive) and the GI50 (DU-145) was > 100 µM (inactive). The GI50 (EKVX) was 4.69 µM (inactive), the GI50 (HCT-15) was 35.8 µM and the GI50 (HOP-62) was > 100 µM (inactive). For the same molecule, the GI50 (Hs-578T) was 41.5 µM (inactive), the GI50 (IGROV-1) was 25.2 µM (inactive) and the GI50 (LOX IMVI) was 22.6 µM (inactive). For the same molecule, the GI50 (MCF7) was 18.6 µM (inactive), the GI50 (NCI-H226) was 32 µM (inactive) and the GI50 (NCI-H460) was 47.6 µM (inactive). For the same molecule, the GI50 (NCI/ADR-RES) was 13.7 µM (inactive), the GI50 (OVCAR-4) was 25.6 µM (inactive) and the GI50 (OVCAR-5) was > 100 µM (inactive). The GI50 (OVCAR-8) was 57.4 µM (inactive), the GI50 (SF-268) was 53.2 µM (inactive) and the GI50 (SN12C) was 40.9 µM (inactive). The GI50 (U-251) was 28.2 µM (inactive) and the GI50 (UO-31) was 43.8 µM (inactive).
For COc1c(-c2ccc3c(c2)OCO3)oc2cc3c(c(OC)c2c1=O)OCO3 [MELITERNATIN], the GI50 (A549) was 20.2 µM (inactive), the GI50 (COLO 205) was 23.1 µM (inactive) and the GI50 (DU-145) was 30.5 µM (inactive). The GI50 (EKVX) was 24.5 µM (inactive), the GI50 (HCT-15) was 30.8 µM and the GI50 (HOP-62) was 15.4 µM (inactive). The GI50 (Hs-578T) was 31.1 µM (inactive), the GI50 (IGROV-1) was 18.7 µM (inactive) and the GI50 (LOX IMVI) was 11.6 µM (inactive). The GI50 (MCF7) was 18.4 µM (inactive), the GI50 (NCI-H226) was 18.7 µM (inactive) and the GI50 (NCI-H460) was 14.4 µM (inactive). The GI50 (NCI/ADR-RES) was 27.6 µM (inactive), the GI50 (OVCAR-4) was 24.2 µM (inactive) and the GI50 (OVCAR-5) was 29.8 µM (inactive). For the same molecule, the GI50 (OVCAR-8) was 19.1 µM (inactive), the GI50 (SF-268) was 14.2 µM (inactive) and the GI50 (SN12C) was 16 µM (inactive). For the same molecule, the GI50 (U-251) was 16.6 µM (inactive) and the GI50 (UO-31) was 23 µM (inactive).
